In ChEMBL document CHEMBL1134828, “The synthesis of cyclic tetrapeptoid analogues of the antiprotozoal natural product apicidin” (2001) one finds EC50 and ED50 data, which are given here for three molecules.

For experiment [1], the system named is Leishmania donovani. As to the kind of experiment: Effective dose required for antiprotozoal activity against Leishmania donovani. The class given is functional. To be noted: read-out: ED50.
Experiment [2] relates to Trypanosoma brucei. As to the kind of experiment: Effective dose required for antiprotozoal activity against Trypanosoma brucei. The class given is functional. The settings on record: read-out: ED50.
The test system of experiment [3] is Trypanosoma cruzi. As to the kind of experiment: Effective dose required for antiprotozoal activity against Trypanosoma cruzi. The class given is functional. The settings on record: read-out: ED50.
Experiment [4] deals with Plasmodium falciparum. The experiment is described as follows: Effective dose for antimalarial activity against Plasmodium falciparum. In kind it is functional. To be noted: read-out: ED50.
Experiment [5] is described as follows: Cytotoxicity tested against KB cells of human nasopharyngeal epithelial cell line. In kind it is functional. The settings on record: read-out: ED50 (the source's name).
Experiment [6] deals with Leishmania donovani. As to the kind of experiment: Effective dose required for antiprotozoal activity against Leishmania donovani; T: Toxicity to both mouse macrophage host cells and intracellular parasites prevented determination of antiprotozoal activity. The class given is functional, organism-based.
Experiment [7] relates to Trypanosoma cruzi. As to the kind of experiment: Effective dose required for antiprotozoal activity against Trypanosoma cruzi; T: Toxicity to both mouse macrophage host cells and intracellular parasites prevented determination of antiprotozoal activity. In kind it is functional, organism-based.

≈ marks a conversion by molar mass, not a printed value.

In the case of `CCC(=O)CCCCC[C@@H]1NC(=O)[C@H]2CCCN2C(=O)[C@H]([C@@H](C)CC)NC[C@H](Cc2c[nH]c3ccccc23)NC1=O`, the EC50 in experiment [1] is more than 30 µg/mL; in experiment [2], 11.1 µg/mL (≈ 19.6 µM); in experiment [3] it was more than 30 µg/mL; in experiment [4], more than 1 µg/mL.

`CCC(=O)CCCCC[C@@H]1NC(=O)[C@H]2CCCN2C(=O)[C@H]([C@@H](C)CC)N(C(C)=O)C[C@H](Cc2c[nH]c3ccccc23)NC1=O`: the EC50 is more than 30 µg/mL in experiment [1], 13 µg/mL (≈ 21.3 µM) in experiment [2], more than 30 µg/mL in experiment [3] and more than 1 µg/mL in experiment [4].

As to `CCC(=O)CCCCC[C@@H]1NC(=O)[C@H]2CCCCN2C(=O)[C@H]([C@@H](C)CC)NC(=O)[C@H](Cc2cn(OC)c3ccccc23)NC1=O` [APICIDIN], the EC50 in experiment [5] came to 200 µg/mL (≈ 321 µM); in experiment [2] it was 1.9 µg/mL (≈ 3.05 µM); in experiment [4], 0.22 µg/mL (≈ 0.353 µM). Also, the ED50 result in experiment [6] and in experiment [7] was “Toxic” throughout.
